Experimental findings from ChEMBL document CHEMBL5352492, “Application of deep generative model for design of Pyrrolo[2,3-d] pyrimidine derivatives as new selective TANK binding kinase 1 (TBK1) inhibitors” (Eur J Med Chem, 2023) are described below.

Test [1] deals with Fibroblast growth factor receptor 1 (Homo sapiens) (UniProt P11362). Put plainly: Inhibition of FGFR1 (unknown origin) at 100 to 1000 nM relative to control. The note with it: dose 100-1000 nM.
In test [2] the target is T1, Serine/threonine-protein kinase TBK1 (Homo sapiens, UniProt Q9UHD2).
T1 sequence (Q9UHD2 whole entry): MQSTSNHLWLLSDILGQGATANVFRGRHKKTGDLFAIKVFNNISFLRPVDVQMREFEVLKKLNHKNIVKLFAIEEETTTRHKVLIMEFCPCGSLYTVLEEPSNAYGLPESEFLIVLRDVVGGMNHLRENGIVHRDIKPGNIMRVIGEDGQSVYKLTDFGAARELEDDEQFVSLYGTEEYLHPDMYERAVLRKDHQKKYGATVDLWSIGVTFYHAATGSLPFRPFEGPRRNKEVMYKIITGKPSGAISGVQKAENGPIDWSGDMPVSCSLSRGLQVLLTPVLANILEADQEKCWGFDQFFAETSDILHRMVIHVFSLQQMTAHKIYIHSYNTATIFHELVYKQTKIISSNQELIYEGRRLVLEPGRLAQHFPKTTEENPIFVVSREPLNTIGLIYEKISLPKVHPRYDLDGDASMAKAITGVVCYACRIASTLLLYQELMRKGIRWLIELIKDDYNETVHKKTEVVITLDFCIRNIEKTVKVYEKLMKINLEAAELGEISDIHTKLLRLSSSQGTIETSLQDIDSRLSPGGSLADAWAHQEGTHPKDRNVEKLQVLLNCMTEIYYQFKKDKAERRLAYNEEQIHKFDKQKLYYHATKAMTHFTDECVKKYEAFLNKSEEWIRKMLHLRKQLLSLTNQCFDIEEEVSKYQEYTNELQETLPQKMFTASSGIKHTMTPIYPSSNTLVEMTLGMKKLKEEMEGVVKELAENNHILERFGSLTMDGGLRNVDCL
Put plainly: Inhibition of TBK1 in human THP1-Blue ISG cells by measuring SEAP gene expression incubated for 24 hrs by reporter gene assay. Format: cell-based. For orientation: Reporter assays use an easily measured gene product as a stand-in for the process of interest.

Another test relates to RAW264.7. Put plainly: Inhibition of LPS-induced ifn-beta in mouse RAW264.7 cells treated for 2 hrs RTq-PCR analysis. In kind it is functional, cell-based. The following applies: dose 0.1-1 µM.
The target of test [3] is Ephrin type-A receptor 2 (Homo sapiens) (UniProt P29317). Put plainly: Inhibition of EPH-A2 (unknown origin) at 100 to 1000 nM relative to control. The following applies: dose 100-1000 nM.
Ephrin type-A receptor 2 (Homo sapiens), sequence (P29317 whole entry): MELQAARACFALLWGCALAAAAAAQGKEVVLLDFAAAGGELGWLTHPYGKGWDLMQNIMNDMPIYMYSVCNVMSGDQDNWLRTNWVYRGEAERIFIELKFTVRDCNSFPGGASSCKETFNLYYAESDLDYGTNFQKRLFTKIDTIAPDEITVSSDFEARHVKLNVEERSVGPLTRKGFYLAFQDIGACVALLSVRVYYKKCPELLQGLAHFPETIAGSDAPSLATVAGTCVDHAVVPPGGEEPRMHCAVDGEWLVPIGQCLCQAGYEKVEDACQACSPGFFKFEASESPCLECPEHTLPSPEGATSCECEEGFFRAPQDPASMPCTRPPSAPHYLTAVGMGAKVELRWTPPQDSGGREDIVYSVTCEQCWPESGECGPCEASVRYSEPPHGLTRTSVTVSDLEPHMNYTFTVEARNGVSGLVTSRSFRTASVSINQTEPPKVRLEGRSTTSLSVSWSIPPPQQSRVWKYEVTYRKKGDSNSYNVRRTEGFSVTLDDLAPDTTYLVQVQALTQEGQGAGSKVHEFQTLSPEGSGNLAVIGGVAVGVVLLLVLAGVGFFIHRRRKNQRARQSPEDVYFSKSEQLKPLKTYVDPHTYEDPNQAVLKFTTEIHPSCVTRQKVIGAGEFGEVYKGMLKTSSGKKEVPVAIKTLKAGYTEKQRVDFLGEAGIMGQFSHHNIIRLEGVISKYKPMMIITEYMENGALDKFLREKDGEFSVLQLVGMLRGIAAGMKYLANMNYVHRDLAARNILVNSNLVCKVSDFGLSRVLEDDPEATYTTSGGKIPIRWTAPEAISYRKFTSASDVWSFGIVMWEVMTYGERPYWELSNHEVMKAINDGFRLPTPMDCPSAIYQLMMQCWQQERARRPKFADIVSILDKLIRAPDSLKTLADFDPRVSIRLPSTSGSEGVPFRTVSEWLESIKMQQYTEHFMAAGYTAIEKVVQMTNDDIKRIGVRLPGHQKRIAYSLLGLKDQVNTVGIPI
In test [4] the target is Fibroblast growth factor receptor 3 (Homo sapiens) (UniProt P22607). Put plainly: Inhibition of FGFR3 (unknown origin) at 100 to 1000 nM relative to control. The note with it: dose 100-1000 nM.
Test [5] has as its target Proto-oncogene tyrosine-protein kinase Src (Homo sapiens) (UniProt P12931). Put plainly: Inhibition of Src (unknown origin) at 100 to 1000 nM relative to control. The note with it: dose 100-1000 nM.
The target of test [6] is Receptor-type tyrosine-protein kinase FLT3 (Homo sapiens) (UniProt P36888). Put plainly: Inhibition of Flt-3 (unknown origin) at 100 to 1000 nM relative to control. The following applies: dose 100-1000 nM.
Receptor-type tyrosine-protein kinase FLT3 (Homo sapiens), sequence (P36888 whole entry): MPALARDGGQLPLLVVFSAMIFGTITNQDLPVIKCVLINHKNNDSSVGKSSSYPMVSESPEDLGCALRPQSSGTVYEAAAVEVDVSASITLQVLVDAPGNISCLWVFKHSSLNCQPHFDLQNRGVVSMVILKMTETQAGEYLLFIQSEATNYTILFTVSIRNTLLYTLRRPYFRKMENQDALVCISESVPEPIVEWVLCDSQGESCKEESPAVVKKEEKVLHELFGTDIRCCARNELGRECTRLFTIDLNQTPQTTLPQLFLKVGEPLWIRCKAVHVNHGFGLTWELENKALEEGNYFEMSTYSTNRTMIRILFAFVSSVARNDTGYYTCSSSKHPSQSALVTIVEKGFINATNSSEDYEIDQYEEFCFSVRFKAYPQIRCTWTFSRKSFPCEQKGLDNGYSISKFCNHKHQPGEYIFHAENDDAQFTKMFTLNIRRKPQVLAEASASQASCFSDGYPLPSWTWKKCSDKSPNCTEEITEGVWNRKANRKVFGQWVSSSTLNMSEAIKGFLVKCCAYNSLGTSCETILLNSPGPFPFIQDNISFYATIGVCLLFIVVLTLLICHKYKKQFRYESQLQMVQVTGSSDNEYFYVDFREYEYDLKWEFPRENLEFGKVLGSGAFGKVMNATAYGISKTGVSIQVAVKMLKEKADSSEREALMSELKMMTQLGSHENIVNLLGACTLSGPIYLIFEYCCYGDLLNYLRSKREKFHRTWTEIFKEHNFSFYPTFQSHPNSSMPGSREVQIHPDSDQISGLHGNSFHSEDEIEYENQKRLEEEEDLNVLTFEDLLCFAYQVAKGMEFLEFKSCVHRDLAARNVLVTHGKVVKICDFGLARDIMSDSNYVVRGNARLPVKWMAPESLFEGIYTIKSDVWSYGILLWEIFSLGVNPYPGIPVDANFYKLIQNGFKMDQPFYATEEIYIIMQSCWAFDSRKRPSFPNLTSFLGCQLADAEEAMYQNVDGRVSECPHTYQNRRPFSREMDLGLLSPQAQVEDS
Test [7] addresses Tyrosine-protein kinase ABL1 (Homo sapiens) (UniProt P00519). Put plainly: Inhibition of Abl (unknown origin) at 100 to 1000 nM relative to control. The note with it: dose 100-1000 nM.
Test [8] concerns the target Insulin receptor (Homo sapiens) (UniProt P06213). Put plainly: Inhibition of IR (unknown origin) at 100 to 1000 nM relative to control. The note with it: dose 100-1000 nM.
The target in test [9] is Tyrosine-protein kinase ITK/TSK (Homo sapiens) (UniProt Q08881). Put plainly: Inhibition of ITK (unknown origin) at 100 to 1000 nM relative to control. The note with it: dose 100-1000 nM.

Insulin receptor (Homo sapiens), sequence (P06213 28-758 limits assumed): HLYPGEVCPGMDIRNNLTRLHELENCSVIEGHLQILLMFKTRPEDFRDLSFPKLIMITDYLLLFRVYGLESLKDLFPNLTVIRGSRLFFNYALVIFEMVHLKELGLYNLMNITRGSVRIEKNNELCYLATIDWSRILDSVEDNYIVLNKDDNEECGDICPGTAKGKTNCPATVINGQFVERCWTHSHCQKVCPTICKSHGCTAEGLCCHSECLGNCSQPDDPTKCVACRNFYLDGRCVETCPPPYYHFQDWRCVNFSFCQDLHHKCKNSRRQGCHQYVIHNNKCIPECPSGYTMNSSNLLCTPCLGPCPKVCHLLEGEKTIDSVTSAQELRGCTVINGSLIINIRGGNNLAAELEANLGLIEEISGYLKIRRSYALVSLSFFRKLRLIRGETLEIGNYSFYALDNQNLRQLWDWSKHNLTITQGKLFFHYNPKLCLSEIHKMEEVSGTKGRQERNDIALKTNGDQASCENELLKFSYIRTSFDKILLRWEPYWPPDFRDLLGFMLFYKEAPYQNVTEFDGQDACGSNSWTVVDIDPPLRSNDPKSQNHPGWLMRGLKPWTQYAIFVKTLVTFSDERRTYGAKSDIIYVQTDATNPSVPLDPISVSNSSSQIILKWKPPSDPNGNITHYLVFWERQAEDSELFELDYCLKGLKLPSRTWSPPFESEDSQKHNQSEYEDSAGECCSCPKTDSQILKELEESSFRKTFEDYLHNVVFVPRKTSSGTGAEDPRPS
Insulin receptor (Homo sapiens), sequence (P06213 763-1382 limits assumed): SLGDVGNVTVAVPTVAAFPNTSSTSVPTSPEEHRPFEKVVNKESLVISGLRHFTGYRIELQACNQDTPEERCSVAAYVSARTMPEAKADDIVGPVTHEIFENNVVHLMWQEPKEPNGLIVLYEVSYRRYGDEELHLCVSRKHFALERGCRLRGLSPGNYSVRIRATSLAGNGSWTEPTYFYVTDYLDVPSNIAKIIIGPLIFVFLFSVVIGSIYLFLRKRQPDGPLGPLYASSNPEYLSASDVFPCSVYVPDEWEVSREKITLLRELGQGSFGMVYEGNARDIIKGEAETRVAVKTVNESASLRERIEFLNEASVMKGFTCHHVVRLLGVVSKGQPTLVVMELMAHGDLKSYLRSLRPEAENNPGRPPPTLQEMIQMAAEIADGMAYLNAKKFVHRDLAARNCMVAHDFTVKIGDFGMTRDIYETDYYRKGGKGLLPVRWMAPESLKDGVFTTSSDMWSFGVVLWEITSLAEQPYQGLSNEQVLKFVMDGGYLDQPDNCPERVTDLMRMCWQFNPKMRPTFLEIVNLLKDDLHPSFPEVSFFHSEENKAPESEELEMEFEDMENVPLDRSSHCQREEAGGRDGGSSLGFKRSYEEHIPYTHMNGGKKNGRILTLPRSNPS
Tyrosine-protein kinase ABL1 (Homo sapiens), sequence (P00519 whole entry): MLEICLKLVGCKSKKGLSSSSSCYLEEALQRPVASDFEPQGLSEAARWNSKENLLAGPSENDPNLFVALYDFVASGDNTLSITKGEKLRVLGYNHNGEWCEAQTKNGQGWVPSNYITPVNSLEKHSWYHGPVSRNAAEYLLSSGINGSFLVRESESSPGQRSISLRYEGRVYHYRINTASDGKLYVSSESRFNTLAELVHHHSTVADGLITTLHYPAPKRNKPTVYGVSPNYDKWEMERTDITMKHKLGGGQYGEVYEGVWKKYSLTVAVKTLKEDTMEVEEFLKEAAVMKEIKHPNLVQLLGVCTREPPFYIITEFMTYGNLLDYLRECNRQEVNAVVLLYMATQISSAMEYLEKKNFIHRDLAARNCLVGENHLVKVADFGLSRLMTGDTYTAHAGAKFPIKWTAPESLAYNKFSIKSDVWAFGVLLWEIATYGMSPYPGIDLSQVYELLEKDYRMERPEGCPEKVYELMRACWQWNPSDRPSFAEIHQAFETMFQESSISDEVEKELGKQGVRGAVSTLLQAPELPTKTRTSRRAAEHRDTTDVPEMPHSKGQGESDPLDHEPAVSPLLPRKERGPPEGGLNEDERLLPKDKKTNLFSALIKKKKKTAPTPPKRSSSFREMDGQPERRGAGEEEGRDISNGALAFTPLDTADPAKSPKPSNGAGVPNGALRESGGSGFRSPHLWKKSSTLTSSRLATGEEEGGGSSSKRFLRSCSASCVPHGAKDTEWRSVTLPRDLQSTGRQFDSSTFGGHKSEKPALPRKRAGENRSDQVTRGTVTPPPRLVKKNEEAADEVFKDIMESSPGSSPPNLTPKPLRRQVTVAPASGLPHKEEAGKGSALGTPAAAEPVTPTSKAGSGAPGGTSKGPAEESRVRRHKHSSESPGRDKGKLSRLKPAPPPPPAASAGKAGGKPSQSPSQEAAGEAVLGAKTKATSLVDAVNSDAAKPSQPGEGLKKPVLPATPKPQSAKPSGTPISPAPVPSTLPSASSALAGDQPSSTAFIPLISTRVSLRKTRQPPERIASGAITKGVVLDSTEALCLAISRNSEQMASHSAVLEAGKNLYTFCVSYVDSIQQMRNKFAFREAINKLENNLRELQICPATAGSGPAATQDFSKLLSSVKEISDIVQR
Proto-oncogene tyrosine-protein kinase Src (Homo sapiens), sequence (P12931 2-536 limits assumed): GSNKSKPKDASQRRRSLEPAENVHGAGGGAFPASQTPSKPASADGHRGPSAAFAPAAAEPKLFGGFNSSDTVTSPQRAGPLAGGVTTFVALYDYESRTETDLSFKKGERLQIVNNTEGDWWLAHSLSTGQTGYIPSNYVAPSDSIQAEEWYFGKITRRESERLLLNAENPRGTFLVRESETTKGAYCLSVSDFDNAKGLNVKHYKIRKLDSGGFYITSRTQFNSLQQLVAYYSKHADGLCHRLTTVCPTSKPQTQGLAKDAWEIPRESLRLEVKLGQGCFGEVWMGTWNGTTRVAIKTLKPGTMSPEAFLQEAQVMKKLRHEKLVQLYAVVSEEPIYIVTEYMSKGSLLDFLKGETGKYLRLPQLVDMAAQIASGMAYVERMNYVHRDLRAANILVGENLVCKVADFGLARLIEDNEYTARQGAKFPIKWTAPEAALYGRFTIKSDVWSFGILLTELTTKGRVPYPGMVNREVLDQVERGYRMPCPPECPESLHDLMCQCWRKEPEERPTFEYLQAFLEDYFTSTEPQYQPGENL

Consider `CC(=O)N1CCN(Cc2cccc(Nc3ncc4ccn(CCCNC(=O)C5CCC5)c4n3)c2)CC1`, for which the inhibition – broadly, the drop in the measured response relative to a control, in per cent – in test [1] was below 35%; in the test on RAW264.7, “Dose-Dependent Effect”; in test [3] it was below 35%; in [4], below 35%; in test [5], below 35%; in test [6] it was below 35%. Further, the inhibition in test [7], in test [8] and in test [9] was below 35% in each case. In addition, the IC50 (in general, the concentration that gives 50% inhibition) in test [2] is 566 nM.
